Results on two compounds are retold here after publication PMC11284788, “NN1213 – A Potent, Long-Acting, and Selective Analog of Human Amylin” (Journal of Medicinal Chemistry, 2024).

One assay has as its target T1, rAMY3R (Rattus norvegicus, UniProt P32214+Q9JJ73).
T1 sequence (P32214 25-479 isoform P32214-2 limits assumed): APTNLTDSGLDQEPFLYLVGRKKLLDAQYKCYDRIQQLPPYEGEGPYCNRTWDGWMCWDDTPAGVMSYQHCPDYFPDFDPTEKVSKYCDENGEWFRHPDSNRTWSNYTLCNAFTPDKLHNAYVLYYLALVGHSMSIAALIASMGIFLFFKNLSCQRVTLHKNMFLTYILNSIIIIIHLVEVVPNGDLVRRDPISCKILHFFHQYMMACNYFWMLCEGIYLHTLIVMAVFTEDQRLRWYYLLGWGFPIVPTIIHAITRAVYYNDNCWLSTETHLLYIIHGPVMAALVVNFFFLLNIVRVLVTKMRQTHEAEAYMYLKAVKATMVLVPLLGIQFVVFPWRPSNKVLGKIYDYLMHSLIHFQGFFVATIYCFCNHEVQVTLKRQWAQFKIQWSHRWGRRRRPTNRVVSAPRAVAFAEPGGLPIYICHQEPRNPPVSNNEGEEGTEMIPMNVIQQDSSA
T1 sequence (Q9JJ73 23-147 partner): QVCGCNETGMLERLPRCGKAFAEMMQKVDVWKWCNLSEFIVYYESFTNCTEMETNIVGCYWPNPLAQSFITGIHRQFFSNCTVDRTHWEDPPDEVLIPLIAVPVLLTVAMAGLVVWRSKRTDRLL
Briefly: scintillation proximity binding assay, rAMY3R membranes. Further details: expressed in transfected cells; host or cells: BHK tk-ts 13, transient co-transfection (FuGENE 6). The note with it: for rAMY3R pIC50: SPA binding assay, Tables S13 and S15; for ratio rCTR/rAMY3R: ratio of binding IC50 values. On the technique in general: SPA uses beads or plates that emit light when radiolabelled molecules are held near them.

For assay [1], the target named is T2, hAMY3R (Homo sapiens, UniProt O60896+P30988).
T2 sequence (P30988 25-474): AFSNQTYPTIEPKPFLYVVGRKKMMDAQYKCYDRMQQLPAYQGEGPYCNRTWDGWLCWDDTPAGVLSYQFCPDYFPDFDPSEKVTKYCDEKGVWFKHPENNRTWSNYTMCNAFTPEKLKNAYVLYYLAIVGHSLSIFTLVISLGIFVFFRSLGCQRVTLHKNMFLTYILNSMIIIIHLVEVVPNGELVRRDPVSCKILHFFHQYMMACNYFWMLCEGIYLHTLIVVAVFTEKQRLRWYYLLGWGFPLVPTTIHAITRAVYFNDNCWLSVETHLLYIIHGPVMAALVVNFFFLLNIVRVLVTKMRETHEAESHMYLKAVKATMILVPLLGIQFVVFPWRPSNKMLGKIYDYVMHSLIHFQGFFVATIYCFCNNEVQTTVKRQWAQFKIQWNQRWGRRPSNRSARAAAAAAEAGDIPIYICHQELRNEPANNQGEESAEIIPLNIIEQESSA
T2 sequence (O60896 24-148 partner): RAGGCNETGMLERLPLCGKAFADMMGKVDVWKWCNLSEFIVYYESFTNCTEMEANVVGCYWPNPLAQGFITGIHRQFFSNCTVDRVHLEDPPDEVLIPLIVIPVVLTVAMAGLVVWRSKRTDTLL
As to the kind of experiment: cAMP-responsive element luciferase reporter assay, human AMY3R. Type of assay: cell-based. Further details: expressed in transfected cells. The note with it: for ratio hCTR/hAMY3R: ratio of luciferase EC50 values. On the technique in general: A reporter such as luciferase makes a cellular process visible.

Assay [2] deals with T2, hAMY3R. As to the kind of experiment: scintillation proximity binding assay, hAMY3R membranes. The note with it: for hAMY3R pIC50: SPA binding assay, Tables S13 and S15; for ratio hCTR/hAMY3R: ratio of binding IC50 values. The arrangement: expressed in transfected cells; host or cells: BHK tk-ts 13, transient co-transfection; membranes for the SPA, whole cells for the species-specific assays.

The mark [3] stands for this setting: luciferase (human receptor assay), BHK cells stably expressing hCTR+RAMP3 and CRE-luciferase, 3 h, 37 °C, 10% FBS, read-out: hAMY3R EC50.

Molecules are shown by their SMILES. Read-outs that look alike come from different tables or passages of the source.

In the case of `CC[C@H](C)[C@H](NC(=O)[C@H](C)NC(=O)CNC(=O)[C@H](Cc1ccccc1)NC(=O)[C@H](CC(N)=O)NC(=O)[C@@H]1CCCN1C(=O)[C@H](CO)NC(=O)[C@H](CO)NC(=O)[C@H](Cc1c[nH]cn1)NC(=O)[C@H](CCCNC(=N)N)NC(=O)[C@H](CC(C)C)NC(=O)[C@H](Cc1ccccc1)NC(=O)[C@H](CC(N)=O)NC(=O)[C@H](C)NC(=O)[C@H](CC(C)C)NC(=O)[C@H](CCCNC(=N)N)NC(=O)[C@H](CCC(N)=O)NC(=O)[C@@H](NC(=O)[C@H](C)NC(=O)[C@@H]1CSSC[C@H](NC(=O)[C@H](CCCCN)NC(=O)CC[C@H](NC(=O)CCCCCCCCCCCCCCCCCCC(=O)O)C(=O)O)C(=O)N[C@@H](CC(N)=O)C(=O)N[C@@H]([C@@H](C)O)C(=O)N[C@@H](C)C(=O)N[C@@H]([C@@H](C)O)C(=O)N1)[C@@H](C)O)C(=O)N1CCC[C@H]1C(=O)N[C@@H](CO)C(=O)N[C@@H](CO)C(=O)N[C@H](C(=O)N[C@@H](CC(N)=O)C(=O)N[C@H](C(=O)NCC(=O)N[C@@H](CO)C(=O)N[C@@H](CCCCN)C(=O)N[C@H](C(=O)N[C@@H](Cc1ccc(O)cc1)C(N)=O)[C@@H](C)O)C(C)C)[C@@H](C)O` [Peptide 13], on rAMY3R, the “rAMY3R pIC50” value turned out to be 8.77 and the “ratio rCTR/rAMY3R” value is 52. For the same compound, the EC50 on hAMY3R [1] (luciferase (human receptor assay), Tables S12 and S14, read-out: hAMY3R pEC50 (converted)) is 0.309 nM. The EC50 on hAMY3R [1] (setting [3]) came out at 0.31 nM. The “ratio hCTR/hAMY3R” value on hAMY3R [1] was 8.4. In addition, on hAMY3R [2], the “hAMY3R pIC50” value came to 8.94 and the “ratio hCTR/hAMY3R” value is recorded as 64.
Turning to `CC[C@H](C)[C@H](NC(=O)[C@H](C)NC(=O)CNC(=O)[C@H](Cc1ccccc1)NC(=O)[C@H](CC(N)=O)NC(=O)[C@@H]1CCCN1C(=O)[C@H](CO)NC(=O)[C@H](CO)NC(=O)[C@H](Cc1c[nH]cn1)NC(=O)[C@H](CCCNC(=N)N)NC(=O)[C@H](CC(C)C)NC(=O)[C@H](Cc1ccccc1)NC(=O)[C@H](CC(N)=O)NC(=O)[C@H](C)NC(=O)[C@H](CC(C)C)NC(=O)[C@H](CCCNC(=N)N)NC(=O)[C@H](CCC(N)=O)NC(=O)[C@@H](NC(=O)[C@H](C)NC(=O)[C@@H]1CSSC[C@H](NC(=O)[C@H](CCCCN)NC(=O)COCCOCCNC(=O)COCCOCCNC(=O)CC[C@H](NC(=O)CCCCCCCCCCCCCCCCCCC(=O)O)C(=O)O)C(=O)N[C@@H](CC(N)=O)C(=O)N[C@@H]([C@@H](C)O)C(=O)N[C@@H](C)C(=O)N[C@@H]([C@@H](C)O)C(=O)N1)[C@@H](C)O)C(=O)N1CCC[C@H]1C(=O)N[C@@H](CO)C(=O)N[C@@H](CO)C(=O)N[C@H](C(=O)N[C@@H](CC(N)=O)C(=O)N[C@H](C(=O)NCC(=O)N[C@@H](CO)C(=O)N[C@@H](CC(N)=O)C(=O)N[C@H](C(=O)N[C@@H](Cc1ccc(O)cc1)C(N)=O)[C@@H](C)O)C(C)C)[C@@H](C)O` [Peptide 10], on rAMY3R, the “rAMY3R pIC50” value turned out to be 8.52 and the “ratio rCTR/rAMY3R” value is 116. Moreover, the “hAMY3R pEC50” value at hAMY3R [1] (luciferase (human receptor assay), Tables S12 and S14) is 9.36. Further, the EC50 on hAMY3R [1] (setting [3]) was determined as 0.432 nM. Also, at hAMY3R [1], the “ratio hCTR/hAMY3R” value was found to be 23. Also, at hAMY3R [2], the “hAMY3R pIC50” value is reported as 8.94 and the “ratio hCTR/hAMY3R” value was 90.
